Assay results taken from patent US20060275800A1, “Process for characterization of the transactivation and transrepression activity of glucocorticoid receptor ligands in primary immune cells” (priority 2005, published 2006).

Tests used:
Type in all cases: cell-based
CD163 [1] = assay: In vitro mRNA expression of CD163 (transactivation parameter) in unstimulated human PBMC cultures; details: for Transactivation vs. Prednisolone CD163: mRNA, PBMC cultures, GR-ligand/prednisolone quotient
Excerpt: (§1) Regarding the definition of suitable parameters, the regulation, mediated by standard glucocorticoids and selective GR ligands, of more than 50 genes in primary human immune cells was examined in a broad screening approach. Selected genes were further characterized in vitro and in vivo in kinetic experiments. […] Decisive criteria for the parameter selection were 1) the consistent reflection of transactivation or transrepression properties of GR ligands, 2) the detection of the regulation in non-stimulated immune cells, and 3) the quick reaction of the gene expression in in vitro assays (the 4-hour time period was used for the screening), and the good and enduring detectability after in vivo application of GR ligands. These properties make it likely that a direct regulation of the gene expression by the GR ligands will take place and that the parameters will be usable in in vivo studies (e.g., as biomarkers).
(§2) To have a comparison with a standard GK, the GR-ligand-influenced gene expressions for these parameters were normalized to the gene expression after treatment with the standard GK, prednisolone. […] It is clear to one skilled in the art that the normalization could also in principle be related to any other glucocorticoid.
(§3) For gene suppression, the “prednisolone/GR ligand” quotient was derived for purposes of normalization, i.e., a lower value (<1) indicates a relatively weaker suppression by the GR ligands (higher values in the residual gene expression).
(§4) For the mRNA detection, the total RNA was isolated from the respective samples (human PBMC or human whole blood or spleen cells from mice), transcribed in the cDNA and amplified and detected below by means of Real-time TaqMan-PCR (Applied Biosystems). A relative quantification in comparison to the expression of the “house-keeping” gene HPRT was carried out. In each case, the ratio of the result for the GR ligands to the result of the vehicle control is plotted.

FKBP51 [2] = assay: In vitro mRNA expression of FKBP51 (transactivation parameter) in unstimulated human PBMC cultures; details: for Transactivation vs. Prednisolone FKBP51: mRNA, PBMC cultures, GR-ligand/prednisolone quotient
Excerpt: as §1, §2, §3, §4

IL-1β = assay: In vitro mRNA expression of IL-1β (transrepression parameter) in unstimulated human PBMC cultures; details: for Transrepression vs. Prednisolone IL-1β: mRNA, PBMC cultures, prednisolone/GR ligand quotient
Excerpt: as §1, §2, §3, §4

TNF-α = assay: In vitro mRNA expression of TNF-α (transrepression parameter) in unstimulated human PBMC cultures; details: for Transrepression vs. Prednisolone TNF-α: mRNA, PBMC cultures, prednisolone/GR ligand quotient
Excerpt: as §1, §2, §3, §4

CD163 [3] = assay: Time-dependent CD163 mRNA expression in human whole-blood cultures
Experimental: as §4
(§5) For the parameters CD163 and FKBP51, in addition, the time-dependent influence of CR ligands on the mRNA expression in human whole-blood cultures was examined.

FKBP51 [4] = assay: Time-dependent FKBP51 mRNA expression in human whole-blood cultures
Experimental: as §4, §5

[5] = system: transrepression (TNF-α and IL-1β) and transactivation (CD163 and FKBP51); assay: Transrepression/transactivation ratio (dissociation factor) in human PBMC cultures; details: PBMC cultures, 1, 2, 4, 12 and 24 hours
Excerpt: As parameters that could [make] reference to the mechanism of the transrepression, TNF-α and IL-1β were selected. CD163 and FKBP51 are used to detect the transactivation activity.
Below, a ratio between the transrepression and transactivation parameters that are normalized to prednisolone was derived according to formula 2: [formula]
The factors for the transactivation and transrepression activity were averaged geometrically and put into a ratio with one another. […] The higher the ratio, the more dissociated the GR ligand is in comparison to prednisolone (ratio=1). [drawing]
Figure: Ratios for Visualization of the In Vitro Dissociation of the GR Ligands in Comparison to Prednisolone in PBMC Cultures (n—3) after 1, 2, 4, 12 and 24 Hours.
The ratios were calculated after the normalization of the gene expression values to prednisolone from the quotient of the geometric means of the parameters for transrepression (TNF-α and IL-1β) and for transactivation (CD163 and FKBP51). Mean values±SD.

[6] = human PBMC cultures, single substance

## C[C@]12C=CC(=O)C=C1CC[C@@H]1[C@@H]2[C@@H](O)C[C@@]2(C)[C@H]1CC[C@]2(O)C(=O)CO [Prednisolone, prednisolone]
CD163 [1]; [6]
  induction of CD163 (in words): induced
CD163 [1]; 1 hour
  Transactivation vs. Prednisolone CD163: 1.00
CD163 [1]; 2 hours
  Transactivation vs. Prednisolone CD163: 1.00
CD163 [1]; 4 hours
  Transactivation vs. Prednisolone CD163: 1.00
CD163 [1]; 12 hours
  Transactivation vs. Prednisolone CD163: 1.00
CD163 [1]; 24 hours
  Transactivation vs. Prednisolone CD163: 1.00
FKBP51 [2]; [6]
  induction of FKBP51 (in words): induced
FKBP51 [2]; 1 hour
  Transactivation vs. Prednisolone FKBP51: 1.00
FKBP51 [2]; 2 hours
  Transactivation vs. Prednisolone FKBP51: 1.00
FKBP51 [2]; 4 hours
  Transactivation vs. Prednisolone FKBP51: 1.00
FKBP51 [2]; 12 hours
  Transactivation vs. Prednisolone FKBP51: 1.00
FKBP51 [2]; 24 hours
  Transactivation vs. Prednisolone FKBP51: 1.00
IL-1β; [6]
  suppression of the mRNA expression of IL-1β (in words): suppression
IL-1β; 1 hour
  Transrepression vs. Prednisolone IL-1β: 1.00
IL-1β; 2 hours
  Transrepression vs. Prednisolone IL-1β: 1.00
IL-1β; 4 hours
  Transrepression vs. Prednisolone IL-1β: 1.00
IL-1β; 12 hours
  Transrepression vs. Prednisolone IL-1β: 1.00
IL-1β; 24 hours
  Transrepression vs. Prednisolone IL-1β: 1.00
TNF-α; [6]
  suppression of the mRNA expression of TNF-α (in words): suppression
TNF-α; 1 hour
  Transrepression vs. Prednisolone TNF-α: 1.00
TNF-α; 2 hours
  Transrepression vs. Prednisolone TNF-α: 1.00
TNF-α; 4 hours
  Transrepression vs. Prednisolone TNF-α: 1.00
TNF-α; 12 hours
  Transrepression vs. Prednisolone TNF-α: 1.00
TNF-α; 24 hours
  Transrepression vs. Prednisolone TNF-α: 1.00
CD163 [3]
  time-dependent influence on CD163 mRNA expression: induced the expression of these genes permanently
FKBP51 [4]
  time-dependent influence on FKBP51 mRNA expression: induced the expression of these genes permanently
[5]
  dissociation factor (transrepression/transactivation ratio vs prednisolone): largely comparable
